Here are results for two compounds from article PMC5895798, “Allosteric regulation alters carrier domain translocation in pyruvate carboxylase” (Nature Communications, 2018).

SMILES strings stand for the structures. Where two headings read alike, the source gives them in different places.

Format in all cases: biochemical
For test [1], the target named is T1, AnPC (Aspergillus nidulans, UniProt Q5B4R8).
T1 construct: gene ANIA_04462; full length, N-terminal (His)9 tag, pET-17b, E. coli BL21(DE3) with BirA (biotinylated), 130 kDa subunit, tetramer
T1 sequence (Q5B4R8 1-1196): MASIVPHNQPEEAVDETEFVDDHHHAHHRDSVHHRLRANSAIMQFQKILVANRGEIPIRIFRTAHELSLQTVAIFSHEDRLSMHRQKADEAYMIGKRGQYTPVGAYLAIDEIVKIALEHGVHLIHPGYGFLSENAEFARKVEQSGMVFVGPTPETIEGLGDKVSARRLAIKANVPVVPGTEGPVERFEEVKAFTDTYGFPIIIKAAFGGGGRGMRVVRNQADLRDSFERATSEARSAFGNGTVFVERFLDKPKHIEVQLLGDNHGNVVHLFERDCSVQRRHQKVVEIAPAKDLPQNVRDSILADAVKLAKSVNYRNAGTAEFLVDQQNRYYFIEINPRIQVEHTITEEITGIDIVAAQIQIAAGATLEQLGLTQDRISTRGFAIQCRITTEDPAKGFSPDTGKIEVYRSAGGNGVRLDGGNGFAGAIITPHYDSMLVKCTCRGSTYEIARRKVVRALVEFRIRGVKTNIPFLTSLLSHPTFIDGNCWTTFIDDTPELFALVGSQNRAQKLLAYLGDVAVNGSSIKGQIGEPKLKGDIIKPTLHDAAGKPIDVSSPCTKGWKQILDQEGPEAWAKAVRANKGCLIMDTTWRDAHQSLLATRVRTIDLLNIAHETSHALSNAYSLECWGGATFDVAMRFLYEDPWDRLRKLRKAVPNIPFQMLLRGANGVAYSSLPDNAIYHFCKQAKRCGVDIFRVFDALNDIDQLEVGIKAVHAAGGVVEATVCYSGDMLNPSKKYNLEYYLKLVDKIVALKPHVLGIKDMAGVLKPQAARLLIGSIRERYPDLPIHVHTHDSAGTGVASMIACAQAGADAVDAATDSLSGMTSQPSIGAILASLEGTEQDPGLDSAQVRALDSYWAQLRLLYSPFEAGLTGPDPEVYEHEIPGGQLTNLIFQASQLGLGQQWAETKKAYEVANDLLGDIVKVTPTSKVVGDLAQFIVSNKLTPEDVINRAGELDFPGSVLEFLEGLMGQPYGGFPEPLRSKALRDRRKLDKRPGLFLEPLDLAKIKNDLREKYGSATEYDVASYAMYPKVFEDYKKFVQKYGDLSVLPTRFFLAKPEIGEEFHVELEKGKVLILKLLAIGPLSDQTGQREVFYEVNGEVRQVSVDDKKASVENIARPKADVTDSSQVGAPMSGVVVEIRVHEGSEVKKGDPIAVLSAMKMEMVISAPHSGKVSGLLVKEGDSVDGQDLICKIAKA
Put plainly: coupled malate dehydrogenase assay of pyruvate carboxylation, […] nm. The conditions noted are these: read-out: + 0 mM acetyl coenzyme A / Ki.

Test [2] concerns the target T2, RePC (Rhizobium etli, UniProt Q2K340).
T2 construct: gene pyc; full length, N-terminal (His)9 tag, pET-17b, E. coli BL21(DE3) with BirA (biotinylated), 126 kDa subunit, homotetramer
Described as above. To be noted: hybrid tetramer population (hybrid A) of two co-expressed domain-inactivated mutants; no acetyl CoA; 25 mM NaHCO3, 2.5 mM MgATP, 12 mM pyruvate, pH 7.8, 25 °C; allosteric; read-out: + 0 mM acetyl coenzyme A / Ki.

The target in test [3] is T2, RePC. The description is as above. To be noted: read-out: + 0 mM acetyl coenzyme A / Ki.
Test [4] concerns the target T1, AnPC. Put plainly: shift of L-aspartate Ki in coupled assay. To be noted: 0.1 mM acetyl CoA; competes with L-aspartate, no activation; pH 7.8, 25 °C.

Regarding `N[C@@H](CC(=O)O)C(=O)O` [L-aspartate], the values for the Ki at AnPC [1], on RePC [2] and at RePC [3] were 2.6 ± 0.1 mM, 6.2 ± 0.5 mM and 4.7 ± 0.7 mM, respectively.

In the case of `CC(=O)SCCNC(=O)CCNC(=O)[C@H](O)C(C)(C)COP(=O)(O)OP(=O)(O)OC[C@H]1O[C@@H](n2cnc3c(N)ncnc32)[C@H](O)[C@@H]1OP(=O)(O)O` [acetyl CoA], the “shift of L-aspartate Ki in coupled assay” value on AnPC [4] is recorded as “This confirms that acetyl CoA does, indeed, bind to AnPC”.
